Results published in ChEMBL document CHEMBL2406921, “Regioselective synthesis, characterization and antimicrobial evaluation of S-glycosides and S,N-diglycosides of 1,2-Dihydro-5-(1H-indol-2-yl)-1,2,4-triazole-3-thione” (2013).

What was measured:
Type in all cases: functional
Details in all cases: read-out: DIZ
Aspergillus niger = test: Antifungal activity against Aspergillus niger at 5 mg/ml by paper disc diffusion method
Rhizoctonia solani = test: Antifungal activity against Rhizoctonia solani at 5 mg/ml by paper disc diffusion method
Fusarium oxysporum = test: Antifungal activity against Fusarium oxysporum at 5 mg/ml by paper disc diffusion method
Pseudomonas aeruginosa = test: Antibacterial activity against Pseudomonas aeruginosa at 5 mg/ml after 24 hrs by agar-diffusion technique
Bacillus subtilis = test: Antibacterial activity against Bacillus subtilis at 5 mg/ml after 24 hrs by agar-diffusion technique

| SMILES | zone of inhibition at 5000 µg/mL (Aspergillus niger) [mm] | zone of inhibition at 5000 µg/mL (Rhizoctonia solani) [mm] | zone of inhibition at 5000 µg/mL (Fusarium oxysporum) [mm] | zone of inhibition at 5000 µg/mL (Pseudomonas aeruginosa) [mm] | zone of inhibition at 5000 µg/mL (Bacillus subtilis) [mm] |
| --- | --- | --- | --- | --- | --- |
| CC(=O)OC[C@H]1O[C@@H](Sc2n[nH]c(-c3cc4ccccc4[nH]3)n2)[C@H](OC(C)=O)[C@@H](OC(C)=O)[C@H]1OC(C)=O | 0 | 0.75 | 2.1 | 0.5 | 12 |
| O=C(N[C@H](CO)[C@H](O)c1ccc([N+](=O)[O-])cc1)C(Cl)Cl [CHLORAMPHENICOL] | – | – | – | 7.9 | 12 |
| CC(=O)OC[C@H]1O[C@@H](n2nc(-c3cc4ccccc4[nH]3)nc2S[C@@H]2O[C@H](COC(C)=O)[C@@H](OC(C)=O)[C@H](OC(C)=O)[C@H]2OC(C)=O)[C@H](OC(C)=O)[C@@H](OC(C)=O)[C@@H]1OC(C)=O | 0 | 1.15 | 1.95 | 2.5 | 6.5 |
| CCOC(=O)/C(C)=N/Nc1ccccc1 | 1.85 | 1.95 | 2.3 | 2.65 | 12 |
| S=c1nc(-c2cc3ccccc3[nH]2)[nH][nH]1 | 0 | 0.8 | 1.7 | 3.5 | 12 |
| NNC(=O)c1cc2ccccc2[nH]1 | 0 | 0.85 | 1.3 | 3 | 12 |
| CC(=O)N[C@@H]1[C@@H](OC(C)=O)[C@H](OC(C)=O)[C@@H](COC(C)=O)O[C@H]1Sc1n[nH]c(-c2cc3ccccc3[nH]2)n1 | 0 | 1.75 | 0 | 3.9 | 5.1 |
| CCOC(=O)c1cc2ccccc2[nH]1 | 1.3 | 2.7 | 1.9 | 4.85 | 5.6 |
| NC(=S)NNC(=O)c1cc2ccccc2[nH]1 | 0 | 1.05 | 1 | 2.5 | 12 |
| CC(=O)OC[C@H]1O[C@@H](Sc2n[nH]c(-c3cc4ccccc4[nH]3)n2)[C@H](OC(C)=O)[C@@H](OC(C)=O)[C@@H]1OC(C)=O | 0 | 0.6 | 0 | 3.25 | 12 |
